From PubChem BioAssay (NCI)
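Each compound was tested at five concentrations against cells in 96-well plates for 48 hours. GI50 = concentration required for 50% inhibition of growth. The concentration for full growth arrest is given as TGI.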

Tests used:
Experiment in all cases: NCI-60 cell line screen, 48 h
[1] = test system: SNB-19 CNS
[2] = test system: A498 renal
[3] = test system: OVCAR-8 ovarian
[4] = test system: NCI/ADR-RES ovarian
[5] = test system: HT29 colon
[6] = test system: BT-549 breast

Row | Compound | TGI [1] [µM] | TGI [2] [µM] | TGI [3] [µM] | TGI [4] [µM] | TGI [5] [µM] | TGI [6] [µM] | GI50 [1] [µM] | GI50 [2] [µM] | GI50 [3] [µM] | GI50 [4] [µM] | GI50 [5] [µM]
1 | Nc1ccc(N=Nc2c(S(=O)(=O)O)cc3ccccc3c2S(=O)(=O)O)cc1 | > 100 | > 100 | > 100 | > 100 | > 100 | > 100 | – | – | – | – | –
2 | O=C(/C=C/c1ccccc1)Oc1ccc(C(=O)/C=C/c2ccccc2)cc1 | 38.5 | – | 16 | 21.9 | 17.7 | 17.7 | – | – | – | – | –
3 | O=C(O)c1ccccc1CC(Cc1ccc2c(c1)CCC2)C(=O)O (stereo not drawn) | > 100 | > 100 | > 100 | > 100 | > 100 | – | – | – | – | – | –
4 | N[C@@H](Cc1ccccc1)C(=O)N1CCC[C@@H]1P(=O)(Oc1ccccc1)Oc1ccccc1 | > 100 | > 100 | > 100 | > 100 | > 100 | > 100 | – | – | – | – | –
5 | O=C(CCn1ccnc1[N+](=O)[O-])NCCCn1ccnc1[N+](=O)[O-] | – | > 100 | > 100 | > 100 | > 100 | > 100 | – | – | – | – | –
6 | CN1CCOC1c1ccccc1O (stereo not drawn) | > 100 | > 100 | > 100 | > 100 | > 100 | > 100 | – | – | – | – | –
7 | O=[N+]([O-])C(=C(Nc1ccccc1)Nc1ccccc1)C(Cl)=C(Cl)Cl | 32.9 | 26.2 | 48.5 | 58.2 | 34.6 | 29.6 | – | – | – | – | –
8 | O=C(O)CN1CCNCCN(CC(=O)O)CCN(CC(=O)O)CCNCC1 | > 100 | > 100 | > 100 | > 100 | > 100 | > 100 | – | – | – | – | –
9 | N#CC(C#N)=C1SC(=Nc2ccccc2)C(=Nc2ccccc2)N1c1ccccc1 | > 100 | > 92.2 | 65.9 | 97.1 | > 69.9 | 21.5 | – | – | – | – | –
10 | C[C@H](CCC(=O)O)[C@H]1CC[C@H]2[C@@H]3C(=O)C[C@@H]4C[C@H](O)CC[C@]4(C)[C@H]3C[C@H](O)[C@]12C | > 100 | > 100 | > 100 | > 100 | > 100 | > 100 | – | – | – | – | –
11 | Cc1cc(/N=C/c2ccc(N(C)C)cc2)n(-c2ccccc2)n1 | > 100 | 84.5 | > 100 | > 100 | > 100 | > 100 | – | – | – | – | –
12 | CSC1=N/C(=C\c2ccc(C)cc2)C(=O)N1CN1CCCCC1 | > 100 | > 100 | > 100 | > 100 | > 100 | – | – | – | – | – | –
13 | CCOC(=O)c1cccc(N=Nc2nc[nH]c2/C=C/C(=O)OC)c1 | > 100 | 66.8 | > 100 | > 100 | > 100 | > 100 | – | – | – | – | –
14 | C/C(=N\N=C1/C(=O)OC(c2ccccc2)=C1C(=O)c1ccccc1)c1ccc([N+](=O)[O-])cc1 | > 100 | > 100 | > 100 | > 100 | > 100 | 72.6 | – | – | – | – | –
15 | CNc1cc2c(c3ccccc13)C(CCl)CN2C(=O)c1cc2cc(OC)c(OC)c(OC)c2[nH]1 (stereo not drawn) | 0.107 | 0.00762 | 0.0124 | 0.0156 | 0.168 | 0.0333 | – | – | – | – | –
16 | N#CNC(=NCc1ccccc1)N(Cc1ccccc1)Cc1ccccc1 | > 100 | – | > 31.6 | > 100 | – | > 100 | – | – | – | – | –
17 | CCCNc1ncnc2c1ncn2C | > 100 | 95.1 | > 100 | > 100 | – | – | – | – | – | – | –
18 | O=[N+]([O-])C(=C(Nc1cccc2cccnc12)Nc1cccc2cccnc12)C(Cl)=C(Cl)Cl | > 100 | > 100 | > 100 | > 94 | > 100 | > 100 | – | – | – | – | –
19 | COC1=CC(=O)c2c(c(-c3nc(C)cs3)cn2C)C1=O | > 100 | 28.7 | > 49.6 | 31 | 21 | > 57.4 | – | – | – | – | –
20 | Cc1nc(C)c(C(=O)NNC(=O)C[N+](C)(C)C)cc1C(=O)NNC(=O)C[N+](C)(C)C | > 100 | > 100 | > 100 | > 100 | > 100 | > 100 | – | – | – | – | –
21 | O=C1c2cc(-c3ccccc3)cnc2S(=O)(=O)N1c1ccc(Br)cc1 | 35 | > 100 | > 100 | > 100 | > 100 | > 100 | – | – | – | – | –
22 | CCOC(=O)c1c(-c2ccc(O)c(OC)c2)c(C#N)c(=S)n(C2OC(CO)C(O)C(O)C2O)c1-c1ccccc1 (stereo not drawn) | > 100 | > 100 | > 100 | > 100 | > 100 | – | – | – | – | – | –
23 | Cc1cccc(C)c1NC(=O)C(Cc1c[nH]c2ccccc12)NC(=O)OCc1ccccc1 (stereo not drawn) | 51.6 | 69.8 | 89.2 | 40.3 | 68.7 | 65.3 | – | – | – | – | –
24 | CCNC(=S)NNC(=O)C12CC3CC(CC(C3)C1)C2 | > 100 | > 100 | > 100 | > 100 | > 100 | > 100 | – | – | – | – | –
25 | COC(C)(C)C1(O)CC[C@@H](C)CC1=O (stereo partly drawn) | > 100 | > 100 | > 100 | – | > 100 | > 100 | – | – | – | – | –
26 | CC(=O)NC1C(OCc2ccccc2)OC(CO)C(O)C1OCC(=O)N[C@@H](C)C(=O)N[C@H](CCC(=O)NCCCNc1c2ccccc2nc2cccc([N+](=O)[O-])c12)C(N)=O (stereo partly drawn) | 0.552 | 0.944 | 1.71 | – | 0.199 | 0.287 | – | – | – | – | –
27 | COc1ccc(N2C(=O)CC(=O)N(NC(=O)C(C)Oc3ccccc3C)C2=S)cc1 (stereo not drawn) | > 100 | > 100 | > 100 | > 100 | > 100 | > 100 | – | – | – | – | –
28 | NCCCN1c2ccccc2Sc2ccc(Cl)cc21 | > 10 | > 10 | > 10 | > 10 | > 6.59 | > 10 | – | – | – | – | –
29 | CCOS(C)(=O)=O | > 100 | > 100 | > 100 | > 100 | > 100 | > 100 | – | – | – | – | –
30 | NC(=O)c1c(NC(=O)c2ccccc2)sc2c1CCC(=O)C2 | > 100 | 17.2 | > 100 | 10.4 | > 100 | – | 3.29 | 1.06 | 1.33 | 1.28 | 2.33
